Experiments:
Type in all cases: cell-based
[1] = tested on: HCC4006 (exon 19 deletion) cells; assay: Cell viability assay; details: Homo sapiens, HCC4006, 72 h
11–18 (Leu858Arg) cells = assay: cells; details: 72 h
[2] = tested on: PC9 (exon 19 deletion) cells; assay: Cell viability assay; details: for IC50: Homo sapiens, PC-9, 72 h
[3] = tested on: HCC827 (exon 19 deletion) cells; assay: Cell viability assay; details: Homo sapiens, HCC827, 72 h
[4] = tested on: STAT3 and FAK phosphorylation; assay: Western blotting, dasatinib or TPX-0005, PC9 and H1975 cell lines; details: dasatinib 50 and 100 μM respectively, 24 h
[5] = tested on: H1975 (Leu858Arg and Thr790Met) cells; assay: cells; details: for IC50: Homo sapiens, NCI-H1975, 72 h
[6] = tested on: EGFR downstream signal transduction pathways and RTKs; assay: Western blotting, osimertinib with TPX-0005, PC9, 11–18 and H1975 cell lines; details: TPX-0005 1 μM, 24 h
[7] = tested on: mRNA expression of RTK and non-RTK genes; assay: Quantitative RT-PCR after treatment, PC9 and H1975 cells; details: TPX-0005 1 μM alone or combined with an EGFR TKI, five days
[8] = tested on: phospho-STAT3 in PC9 cells; assay: Immunofluorescence and imaging flow cytometry of STAT3 / phospho-STAT3; details: 24 h
[9] = osimertinib 0.05, 0.8 and 0.02 μM respectively

| Compound | IC50 [1] | IC50 (11–18 (Leu858Arg) cells) | IC50 [2] | IC50 [3] | STAT3 and FAK phosphorylation [4] | IC50 [5] | Src and FAK phosphorylation [6, 9] | mRNA expression of most of the transcripts explored [7] | interaction of TPX-0005 with osimertinib (cell viability, colony formation) [5] | interaction of TPX-0005 with gefitinib (cell viability, colony formation) ([2]; PC9 cells) | STAT3 activation state by intracellular localization (immunofluorescence) [8] | AXL total protein expression [6] | CDCP1 phosphorylation [6, 9] |
| --- | --- | --- | --- | --- | --- | --- | --- | --- | --- | --- | --- | --- | --- |
| COc1cc2ncnc(Nc3ccc(F)c(Cl)c3)c2cc1NC(=O)/C=C/CN1CCCCC1 [Dacomitinib] | < 10 nM | 10 nM | < 10 nM | < 10 nM | – | – | – | – | – | – | – | – | – |
| Cc1nc(Nc2ncc(C(=O)Nc3c(C)cccc3Cl)s2)cc(N2CCN(CCO)CC2)n1 [Dasatinib] | – | – | – | – | induced | – | – | – | – | – | – | – | – |
| C=CC(=O)Nc1cc(Nc2nccc(-c3cn(C)c4ccccc34)n2)c(OC)cc1N(C)CCN(C)C [Osimertinib] | 10 nM | – | 20 nM | 10 nM | – | 20 nM | induced | – | – | – | – | – | – |
| C[C@H]1CNC(=O)c2cnn3ccc(nc23)N[C@H](C)c2cc(F)ccc2O1 [TPX-0005] | 1480 nM | – | 1000 nM | – | – | 1000 nM | abrogated | abolished or attenuated | synergistic | synergistic | did not occur | minor effect | diminished |
